Measured values published in EPA's ToxValDB 9.5 (doi:10.2903/j.efsa.2006.79r).
In brackets after ≈: the same amount, converted by molar mass.

Key:
[1] = system: Apis mellifera; settings: acute; duration: 48 hours; dermal; mortality
[2] = system: Colinus virginianus; settings: reproduction developmental
[3] = system: Canidae; settings: subchronic; duration: 90 days; oral; diet; Dog Other; clinical signs
[4] = system: Coturnix japonica; settings: acute; oral; mortality
[5] = system: Daphnia magna; settings: chronic/long-term; reproduction
[6] = system: Oncorhynchus mykiss
[7] = system: Tagia sp.; settings: mortality
[8] = system: Anas platyrhynchos; settings: short-term; duration: 5 days; oral; feed; mortality
[9] = system: Rattus norvegicus; settings: acute; oral; mortality
[10] = system: Aphidius rhopalosiphi; test: LR50; higher = less toxic; settings: acute; duration: 48 hours; mortality

## CNC(=O)Oc1cc(C)c(SC)c(C)c1 [Methiocarb]
[1]
  LD50: 0.23 µg/piece
[2]
  NOEC: 4.51 mg/kg-day
[3]
  NOAEL: 1.33 mg/kg-day
[4]
  LD50: 5 mg/kg
[5]
  NOEC: 0.0001 mg/L
[6]; acute, mortality
  LC50: 0.65 µg/mL (≈ 2.88 µM)
[6]; chronic/long-term, growth
  NOEC: 0.05 mg/L
[7]; acute
  LC50: 1330 mg/kg
[7]; chronic/long-term
  NOEC: 0.32 mg/kg
[8]
  LC50: 1070 mg/kg
[9]
  LD50: 19 mg/kg
[10]
  LR50: 0.47 g/ha
